The test concerns NPC1^I1061T patient-derived fibroblast cells (GM18453). As to the kind of experiment: LipidTox Red lipid droplet staining. It is filed as cell-based, human. Conditions: 10 μM, 48 h, vs DMSO.

Data on one molecule can be found in article PMC8204796 (ACS Pharmacology & Translational Science, 2021).

The structures appear in SMILES notation.

In the case of `CC(=O)Nc1ccc(C(=O)Nc2ccccc2N)cc1` [CI-994], the “Lipid droplet formation (LipidTox Red)” value is given as “increases lipid droplet formation”.
